The test system of experiment [1] is TAZ-IND MCF10A-TAZ tumor cells. The experiment can be described thus: cell viability relative to DMSO control; higher = less cytotoxic; extreme values may be limits of the assay. The settings on record: 72 h. As to the method: (§1)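 TAZ-dependent (grown with 2 ug/ml dox) and TAZ-independent MCF10A-TAZ tumor-derived breast cancer stem-like cells were plated in 384-well plates and treated with serially diluted compounds (0.65-10 uM) for 72 h. Viability was read by resazurin assay and expressed as % of DMSO-treated control.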

Experiment [2] relates to TAZ-DEP MCF10A-TAZ tumor cells. The description is as above. The settings on record: 72 h. As to the method:
as §1

Cell viability data for eleven compounds are collected here from the supplement of paper PMC8239392.

Molecules are shown by their SMILES.

Turning to `COC1CCN(C(=O)c2cc(Cc3n[nH]c(=O)c4ccccc34)ccc2F)CC1` [AZD2461], the cell viability in experiment [1] (0.65 µM) was 94%; in experiment [1] (1.25 µM), 89%; in experiment [1] (2.5 µM), 91%; in experiment [1] (5 µM), 83%; in experiment [1] (10 µM), 78%; in experiment [2] (0.65 µM), 94%. Further, the cell viability in experiment [2] (1.25 µM) stood at 91%; in experiment [2] (2.5 µM), 94%; in experiment [2] (5 µM), 70%; in experiment [2] (10 µM) it was 56%.
In the case of `O=C1NC(=O)/C(=C/c2ccc(-c3ccc(F)cc3O)o2)S1`, the cell viability in experiment [1] (0.65 µM) is 72%; in experiment [1] (1.25 µM), 75%; in experiment [1] (2.5 µM) it was 72%; in experiment [1] (5 µM), 67%; in experiment [1] (10 µM) it was 63%; in experiment [2] (0.65 µM), 62%. For the same compound, the cell viability in experiment [2] (1.25 µM) is 53%; in experiment [2] (2.5 µM) it was 51%; in experiment [2] (5 µM), 46%; in experiment [2] (10 µM), 43%.
As to `CN1CCN(CCCNc2ncc(Cl)c(-c3cc4c(C(=O)NC5CC5)cccc4s3)n2)CC1`, the cell viability in experiment [1] (0.65 µM) turned out to be 94%; in experiment [1] (1.25 µM), 91%; in experiment [1] (2.5 µM), 87%; in experiment [1] (5 µM) it was 84%; in experiment [1] (10 µM), 80%; in experiment [2] (0.65 µM) it was 74%. Further, the cell viability worked out at 67% in experiment [2] (1.25 µM), 63% in experiment [2] (2.5 µM), 63% in experiment [2] (5 µM) and 65% in experiment [2] (10 µM).
As to `CN(C)CCSSCCNC(=O)C1CCN(C(=O)CSc2ccc(Cl)cc2)CC1` [6H05], the cell viability in experiment [1] (0.65 µM) was 99%; in experiment [1] (1.25 µM), 98%; in experiment [1] (2.5 µM) it was 92%; in experiment [1] (5 µM), 88%; in experiment [1] (10 µM) it was 83%; in experiment [2] (0.65 µM), 96%. The cell viability in experiment [2] (1.25 µM) stood at 91%; in experiment [2] (2.5 µM) it was 89%; in experiment [2] (5 µM), 66%; in experiment [2] (10 µM), 23%.
Take `O=C(/C=C/c1ccc2ccccc2n1)c1ccncc1` [PFK15]: the cell viability in experiment [1] (0.65 µM) was 98%; in experiment [1] (1.25 µM), 98%; in experiment [1] (2.5 µM) it was 99%; in experiment [1] (5 µM), 95%; in experiment [1] (10 µM) it was 97%; in experiment [2] (0.65 µM) it was 100%. Besides, the cell viability came to 100% in experiment [2] (1.25 µM), 81% in experiment [2] (2.5 µM), 47% in experiment [2] (5 µM) and 31% in experiment [2] (10 µM).
Consider `COc1cc(F)c(F)c(Nc2ccc(I)cc2F)c1NS(=O)(=O)C1(C[C@H](O)CO)CC1` [Refametinib (RDEA119, Bay 86-9766)], for which the cell viability was 84% in experiment [1] (0.65 µM); 82% in experiment [1] (1.25 µM); 80% in experiment [1] (2.5 µM); 77% in experiment [1] (5 µM); 71% in experiment [1] (10 µM); 53% in experiment [2] (0.65 µM). The cell viability was found to be 51% in experiment [2] (1.25 µM), 51% in experiment [2] (2.5 µM), 51% in experiment [2] (5 µM) and 50% in experiment [2] (10 µM).
On to `C[C@H]1COC2=C1C(=O)C(=O)c1c2ccc2c1CCCC2(C)C` [Cryptotanshinone], for which the cell viability in experiment [1] (0.65 µM) turned out to be 96%; in experiment [1] (1.25 µM) it was 97%; in experiment [1] (2.5 µM) it was 93%; in experiment [1] (5 µM) it was 87%; in experiment [1] (10 µM) it was 79%; in experiment [2] (0.65 µM) it was 96%. Besides, the cell viability is 94% in experiment [2] (1.25 µM), 92% in experiment [2] (2.5 µM), 74% in experiment [2] (5 µM) and 30% in experiment [2] (10 µM).
Turning to `CNCc1ccc(-c2cc(-c3nc(-c4ccc(S(=O)(=O)C(C)C)cc4)cnc3N)on2)cc1` [VE-822], the cell viability in experiment [1] (0.65 µM) is 96%; in experiment [1] (1.25 µM), 87%; in experiment [1] (2.5 µM) it was 81%; in experiment [1] (5 µM) it was 75%; in experiment [1] (10 µM), 69%; in experiment [2] (0.65 µM), 55%. Moreover, the cell viability in experiment [2] (1.25 µM) came to 37%; in experiment [2] (2.5 µM), 29%; in experiment [2] (5 µM) it was 23%; in experiment [2] (10 µM), 20%.
For the compound `Cc1c(Cc2ccc3ccccc3n2)c2cc(F)ccc2n1CC(=O)O`, the cell viability in experiment [1] (0.65 µM) was 90%; in experiment [1] (1.25 µM) it was 94%; in experiment [1] (2.5 µM) it was 90%; in experiment [1] (5 µM), 77%; in experiment [1] (10 µM), 55%; in experiment [2] (0.65 µM), 90%. For the same compound, the cell viability in experiment [2] (1.25 µM) was determined as 82%; in experiment [2] (2.5 µM) it was 69%; in experiment [2] (5 µM), 57%; in experiment [2] (10 µM) it was 33%.
As for `O=C(O)c1cc2cccc([N+](=O)[O-])c2[nH]1`, the cell viability in experiment [1] (0.65 µM) worked out at 100%; in experiment [1] (1.25 µM), 100%; in experiment [1] (2.5 µM) it was 100%; in experiment [1] (5 µM), 97%; in experiment [1] (10 µM), 70%; in experiment [2] (0.65 µM), 100%. Also, the cell viability in experiment [2] (1.25 µM) worked out at 98%; in experiment [2] (2.5 µM), 87%; in experiment [2] (5 µM) it was 47%; in experiment [2] (10 µM), 2%.
`CCc1nc(N)nc(N)c1-c1ccc(Cl)cc1` [Pyrimethamine]: the cell viability in experiment [1] (0.65 µM) worked out at 100%; in experiment [1] (1.25 µM), 100%; in experiment [1] (2.5 µM), 100%; in experiment [1] (5 µM), 100%; in experiment [1] (10 µM), 98%; in experiment [2] (0.65 µM), 100%. Also, the cell viability in experiment [2] (1.25 µM) is 100%; in experiment [2] (2.5 µM) it was 98%; in experiment [2] (5 µM), 85%; in experiment [2] (10 µM), 56%.
